The values below come from BindingDB's records for patent US20240158355 (Baylor College of Medicine, 2024).

pIC50: −log10 of the molar value.

Assay [1] deals with T1, Bromodomain testis-specific protein [287-359] (Homo sapiens, UniProt Q58F21).
T1 construct: 287-359
Briefly: AlphaScreen Assay. The text has this: (§1) No details are given.
A general note: Bead proximity is the source of the signal in Alpha formats.

Assay [2] deals with T2, Bromodomain testis-specific protein [44-116] (UniProt Q58F21).
T2 construct: 44-116
Description: AlphaScreen Assay.
Description: as §1

In the case of `Cc1cc(N)ccc1-c1nn(C)c2ccc(-c3cncnc3)cc12` [US20240158355, Compound 76], the results for the pIC50 in assay [1] and in assay [2] were 5.02 and 5.26, respectively.
